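Results reflect a 48-hour exposure of cells in 96-well plates to compound at five concentrations. GI50 marks 50% less growth. Definition used: TGI = concentration required for complete inhibition of growth.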
Legend:
Test in all cases: DTP human tumour cell line panel, 48 h
786-0 renal = test system: 786-0 renal
A498 renal = test system: A498 renal
A549 NSCLC = test system: A549 NSCLC
ACHN renal = test system: ACHN renal
BT-549 breast = test system: BT-549 breast
CAKI-1 renal = test system: CAKI-1 renal
CCRF-CEM leukemia = test system: CCRF-CEM leukemia
COLO 205 colon = test system: COLO 205 colon
DU-145 prostate = test system: DU-145 prostate
EKVX NSCLC = test system: EKVX NSCLC
HCC-2998 colon = test system: HCC-2998 colon
HCT-116 colon = test system: HCT-116 colon
HCT-15 colon = test system: HCT-15 colon
HL-60(TB) leukemia = test system: HL-60(TB) leukemia
HOP-62 NSCLC = test system: HOP-62 NSCLC
HOP-92 NSCLC = test system: HOP-92 NSCLC
HS 578T breast = test system: HS 578T breast
HT29 colon = test system: HT29 colon
IGROV1 ovarian = test system: IGROV1 ovarian
K-562 leukemia = test system: K-562 leukemia
KM12 colon = test system: KM12 colon
LOX IMVI melanoma = test system: LOX IMVI melanoma
M14 melanoma = test system: M14 melanoma
MALME-3M melanoma = test system: MALME-3M melanoma
MCF7 breast = test system: MCF7 breast
MDA-MB-231 breast = test system: MDA-MB-231 breast
MDA-MB-435 = test system: MDA-MB-435
MDA-MB-468 breast = test system: MDA-MB-468 breast
MOLT-4 leukemia = test system: MOLT-4 leukemia
NCI-H226 lung = test system: NCI-H226 lung
NCI-H23 lung = test system: NCI-H23 lung
NCI-H460 lung = test system: NCI-H460 lung
NCI-H522 lung = test system: NCI-H522 lung
NCI/ADR-RES ovarian = test system: NCI/ADR-RES ovarian
OVCAR-3 ovarian = test system: OVCAR-3 ovarian
OVCAR-4 ovarian = test system: OVCAR-4 ovarian
OVCAR-5 ovarian = test system: OVCAR-5 ovarian
OVCAR-8 ovarian = test system: OVCAR-8 ovarian
PC-3 prostate = test system: PC-3 prostate
RPMI-8226 leukemia = test system: RPMI-8226 leukemia
RXF 393 renal = test system: RXF 393 renal
SF-268 CNS = test system: SF-268 CNS
SF-295 CNS = test system: SF-295 CNS
SF-539 CNS = test system: SF-539 CNS
SK-MEL-2 melanoma = test system: SK-MEL-2 melanoma
SK-MEL-28 melanoma = test system: SK-MEL-28 melanoma
SK-MEL-5 melanoma = test system: SK-MEL-5 melanoma
SK-OV-3 ovarian = test system: SK-OV-3 ovarian
SN12C renal = test system: SN12C renal
SNB-19 CNS = test system: SNB-19 CNS
SNB-75 CNS = test system: SNB-75 CNS
SR leukemia = test system: SR leukemia
SW-620 colon = test system: SW-620 colon
T-47D breast = test system: T-47D breast
TK-10 renal = test system: TK-10 renal
U251 CNS = test system: U251 CNS
UACC-257 melanoma = test system: UACC-257 melanoma
UACC-62 melanoma = test system: UACC-62 melanoma
UO-31 renal = test system: UO-31 renal

Work on `COc1cccc(/C=N/NC(=O)c2ccc3nc(-c4ccc(Cl)cc4)[nH]c3c2)c1O` yielded a GI50 (786-0 renal) of 1060 nM, a TGI (786-0 renal) of 2520 nM and a GI50 (A498 renal) of 5 µM. It also gave a TGI (A498 renal) of 11.9 µM, a GI50 (A549 NSCLC) of 3.68 µM and a TGI (A549 NSCLC) of 14.8 µM. The GI50 (ACHN renal) was 1320 nM, the TGI (ACHN renal) was 6.25 µM and the GI50 (BT-549 breast) was 673 nM. It also gave a TGI (BT-549 breast) of 1790 nM, a GI50 (CAKI-1 renal) of 1010 nM and a TGI (CAKI-1 renal) of 3.51 µM. It also gave a GI50 (CCRF-CEM leukemia) of 425 nM, a TGI (CCRF-CEM leukemia) of 3.77 µM and a GI50 (COLO 205 colon) of 1580 nM. For the same compound, the TGI (COLO 205 colon) was 3.56 µM, the GI50 (DU-145 prostate) was 1340 nM and the TGI (DU-145 prostate) was 3.28 µM. For the same compound, the GI50 (EKVX NSCLC) was 2120 nM, the TGI (EKVX NSCLC) was 9.8 µM and the GI50 (HCC-2998 colon) was 800 nM. For the same compound, the TGI (HCC-2998 colon) was 2200 nM, the GI50 (HCT-116 colon) was 1190 nM and the TGI (HCT-116 colon) was 2570 nM. It also gave a GI50 (HCT-15 colon) of 1310 nM, a TGI (HCT-15 colon) of over 40 µM and a GI50 (HL-60(TB) leukemia) of 1070 nM. It also gave a TGI (HL-60(TB) leukemia) of 4.63 µM, a GI50 (HOP-62 NSCLC) of 570 nM and a TGI (HOP-62 NSCLC) of 1850 nM. The GI50 (HOP-92 NSCLC) was 670 nM, the TGI (HOP-92 NSCLC) was 2400 nM and the GI50 (HS 578T breast) was 705 nM. It also gave a TGI (HS 578T breast) of 2900 nM, a GI50 (HT29 colon) of 4.17 µM and a TGI (HT29 colon) of 19.3 µM. The GI50 (IGROV1 ovarian) was 1250 nM, the TGI (IGROV1 ovarian) was 3.14 µM and the GI50 (K-562 leukemia) was 332 nM. It also gave a GI50 (KM12 colon) of 715 nM, a TGI (KM12 colon) of 1880 nM and a GI50 (LOX IMVI melanoma) of 1180 nM. For the same compound, the TGI (LOX IMVI melanoma) was 2530 nM, the GI50 (M14 melanoma) was 1010 nM and the TGI (M14 melanoma) was 4.28 µM. The GI50 (MALME-3M melanoma) was 1360 nM, the TGI (MALME-3M melanoma) was 2890 nM and the GI50 (MCF7 breast) was 660 nM. The TGI (MCF7 breast) was 3.38 µM, the GI50 (MDA-MB-231 breast) was 988 nM and the TGI (MDA-MB-231 breast) was 3.15 µM. The GI50 (MDA-MB-435) was 1010 nM, the TGI (MDA-MB-435) was 2830 nM and the GI50 (MDA-MB-468 breast) was 611 nM. The TGI (MDA-MB-468 breast) was 1450 nM, the GI50 (MOLT-4 leukemia) was 421 nM and the TGI (MOLT-4 leukemia) was 2460 nM. The GI50 (NCI-H226 lung) was 1650 nM, the TGI (NCI-H226 lung) was 4 µM and the GI50 (NCI-H23 lung) was 525 nM. It also gave a TGI (NCI-H23 lung) of 1540 nM, a GI50 (NCI-H460 lung) of 1340 nM and a TGI (NCI-H460 lung) of 2770 nM. It also gave a GI50 (NCI-H522 lung) of 1170 nM, a TGI (NCI-H522 lung) of 2810 nM and a GI50 (NCI/ADR-RES ovarian) of over 100 µM. The TGI (NCI/ADR-RES ovarian) was over 100 µM, the GI50 (OVCAR-3 ovarian) was 353 nM and the TGI (OVCAR-3 ovarian) was 1050 nM. The GI50 (OVCAR-4 ovarian) was 728 nM, the TGI (OVCAR-4 ovarian) was 3.18 µM and the GI50 (OVCAR-5 ovarian) was 1850 nM. It also gave a TGI (OVCAR-5 ovarian) of 5.08 µM, a GI50 (OVCAR-8 ovarian) of 1580 nM and a TGI (OVCAR-8 ovarian) of 4.39 µM. It also gave a GI50 (PC-3 prostate) of 1350 nM, a TGI (PC-3 prostate) of 4.67 µM and a GI50 (RPMI-8226 leukemia) of 2220 nM. The TGI (RPMI-8226 leukemia) was 5.54 µM, the GI50 (RXF 393 renal) was 972 nM and the TGI (RXF 393 renal) was 2460 nM. It also gave a GI50 (SF-268 CNS) of 484 nM, a TGI (SF-268 CNS) of 1520 nM and a GI50 (SF-295 CNS) of 2200 nM. The TGI (SF-295 CNS) was 5.46 µM, the GI50 (SF-539 CNS) was 428 nM and the TGI (SF-539 CNS) was 1020 nM. It also gave a GI50 (SK-MEL-2 melanoma) of 378 nM, a TGI (SK-MEL-2 melanoma) of 1490 nM and a GI50 (SK-MEL-28 melanoma) of 1000 nM. For the same compound, the TGI (SK-MEL-28 melanoma) was 2930 nM, the GI50 (SK-MEL-5 melanoma) was 772 nM and the TGI (SK-MEL-5 melanoma) was 2090 nM. It also gave a GI50 (SK-OV-3 ovarian) of 1030 nM, a TGI (SK-OV-3 ovarian) of 2790 nM and a GI50 (SN12C renal) of 1080 nM. For the same compound, the TGI (SN12C renal) was 2590 nM, the GI50 (SNB-19 CNS) was 1310 nM and the TGI (SNB-19 CNS) was 2590 nM. It also gave a GI50 (SNB-75 CNS) of 231 nM, a TGI (SNB-75 CNS) of 1380 nM and a GI50 (SR leukemia) of 369 nM. For the same compound, the TGI (SR leukemia) was 3.75 µM, the GI50 (SW-620 colon) was 1320 nM and the TGI (SW-620 colon) was 3.52 µM. The GI50 (T-47D breast) was 389 nM, the TGI (T-47D breast) was 2010 nM and the GI50 (TK-10 renal) was 4.07 µM. For the same compound, the TGI (TK-10 renal) was 15.9 µM, the GI50 (U251 CNS) was 1500 nM and the TGI (U251 CNS) was 3.08 µM. The GI50 (UACC-257 melanoma) was 1190 nM, the TGI (UACC-257 melanoma) was 3.53 µM and the GI50 (UACC-62 melanoma) was 607 nM. It also gave a TGI (UACC-62 melanoma) of 1770 nM, a GI50 (UO-31 renal) of 1010 nM and a TGI (UO-31 renal) of over 48 µM.
